In patent US20260159497A1, “SOLID FORMS OF A COMPLEMENT FACTOR B INHIBITOR” (Novartis Pharma AG, priority 2022, published 2026):
Read-outs that look alike come from different tables or passages of the source.

Assays:
[1] = Dynamic vapor sorption (DVS) mass change; type: physicochemical; details: Table 6
Text: [table] The mass change by DVS isotherm (2 cycles 40-0-95-0-40% RH) are in the tables below. The mass change is based on the dry weight of each.

[2] = Water content by Karl Fischer titration; type: physicochemical; details: ambient conditions; relative to total weight of the salt / free form
[3] = Solubility in water and biorelevant buffers at 25° C.; type: physicochemical; details: for XRPD of residual solid after solubility test / pH of solubility sample (pH) / solubility at 24 h: 25° C., 24 h; for solubility at 24 h: thermodynamic from solid, read-out: Solubility (mg/mL) S
Method: Purchase sodium taurocholate (NaTC) from supplier. Account for assay. Add amount corresponding to 3 mM to PBS V1. Stir until dissolved. Equilibrate 1 h at 25° C. or 37° C. before use. Dispose after 48 h.
Purchase FaSSIF-V2 from supplier (biorelevant.com). Amount added to PBS-V1 according to Table 1. Stir until dissolved. Equilibrate 1 h at 25° C. or 37° C. before use. Dispose after 48 h.
Purchase FeSSIF-V2 from supplier (biorelevant.com). Amount added to PBS-V1 according to Table 1. Stir until dissolved. Equilibrate 1 h at 25° C. or 37° C. before use. Dispose after 48 h.

[4] = Stability of Forms A and B under stress conditions (temperature/humidity, capsules, light)

Structure (SMILES): COc1cc(C)c2[nH]ccc2c1CN1CCC2(C[C@H]1c1ccc(C(=O)O)cc1)CC(F)(F)C2.Cc1ccc(S(=O)(=O)O)cc1 [Form B, (S)-4-(2,2-difluoro-7-((5-methoxy-7-methyl-1H-indol-4-yl)methyl)-7-azaspiro[3.5]nonan-6-yl)benzoic acid p-toluene sulfonate]
- Mass change by DVS, 1st Sorption (%) ([1]; DVS at 25 degree C., 60% RH): 2.37%
- Mass change by DVS, 2nd Desorption (%) ([1]; DVS at 25 degree C., 60% RH): 2.38%
- Mass change by DVS, 1st Sorption (%) ([1]; DVS at 25 degree C., 70% RH): 2.45%
- Mass change by DVS, 2nd Desorption (%) ([1]; DVS at 25 degree C., 70% RH): 2.47%
- Mass change by DVS, 1st Sorption (%) ([1]; DVS at 25 degree C., 80% RH): 2.53%
- Mass change by DVS, 2nd Desorption (%) ([1]; DVS at 25 degree C., 80% RH): 2.54%
- Mass change by DVS, 1st Sorption (%) ([1]; DVS at 25 degree C., 90% RH): 2.60%
- Mass change by DVS, 2nd Desorption (%) ([1]; DVS at 25 degree C., 90% RH): 2.61%
- Mass change by DVS, 1st Sorption (%) ([1]; DVS at 25 degree C., 95% RH): 2.67%
- Mass change by DVS, 2nd Desorption (%) ([1]; DVS at 25 degree C., 95% RH): 2.67%
- Mass change by DVS, 1st Desorption (%) ([1]; DVS at 40 degree C., 0% RH): 0.00%
- Mass change by DVS, 1st Sorption (%) ([1]; DVS at 40 degree C., 0% RH): 0.00%
- Mass change by DVS, 2nd Desorption (%) ([1]; DVS at 40 degree C., 0% RH): −0.01%
- Mass change by DVS, 2nd Sorption (%) ([1]; DVS at 40 degree C., 0% RH): −0.01%
- Mass change by DVS, 1st Desorption (%) ([1]; DVS at 40 degree C., 10% RH): 0.97%
- Mass change by DVS, 1st Sorption (%) ([1]; DVS at 40 degree C., 10% RH): 0.96%
- Mass change by DVS, 2nd Desorption (%) ([1]; DVS at 40 degree C., 10% RH): 0.97%
- Mass change by DVS, 2nd Sorption (%) ([1]; DVS at 40 degree C., 10% RH): 0.95%
- Mass change by DVS, 1st Desorption (%) ([1]; DVS at 40 degree C., 20% RH): 1.61%
- Mass change by DVS, 1st Sorption (%) ([1]; DVS at 40 degree C., 20% RH): 1.59%
- Mass change by DVS, 2nd Desorption (%) ([1]; DVS at 40 degree C., 20% RH): 1.60%
- Mass change by DVS, 2nd Sorption (%) ([1]; DVS at 40 degree C., 20% RH): 1.59%
- Mass change by DVS, 1st Desorption (%) ([1]; DVS at 40 degree C., 30% RH): 1.92%
- Mass change by DVS, 1st Sorption (%) ([1]; DVS at 40 degree C., 30% RH): 1.90%
- Mass change by DVS, 2nd Desorption (%) ([1]; DVS at 40 degree C., 30% RH): 1.91%
- Mass change by DVS, 2nd Sorption (%) ([1]; DVS at 40 degree C., 30% RH): 1.90%
- Mass change by DVS, 1st Desorption (%) ([1]; DVS at 40 degree C., 40% RH): 2.10%
- Mass change by DVS, 1st Sorption (%) ([1]; DVS at 40 degree C., 40% RH): 2.09%
- Mass change by DVS, 2nd Desorption (%) ([1]; DVS at 40 degree C., 40% RH): 2.09%
- Mass change by DVS, 2nd Sorption (%) ([1]; DVS at 40 degree C., 40% RH): 2.09%
- Mass change by DVS, 1st Sorption (%) ([1]; DVS at 40 degree C., 50% RH): 2.21%
- Mass change by DVS, 2nd Desorption (%) ([1]; DVS at 40 degree C., 50% RH): 2.22%
- Mass change by DVS, 1st Sorption (%) ([1]; DVS at 40 degree C., 60% RH): 2.28%
- Mass change by DVS, 2nd Desorption (%) ([1]; DVS at 40 degree C., 60% RH): 2.29%
- Mass change by DVS, 1st Sorption (%) ([1]; DVS at 40 degree C., 70% RH): 2.34%
- Mass change by DVS, 2nd Desorption (%) ([1]; DVS at 40 degree C., 70% RH): 2.37%
- Mass change by DVS, 1st Sorption (%) ([1]; DVS at 40 degree C., 80% RH): 2.40%
- Mass change by DVS, 2nd Desorption (%) ([1]; DVS at 40 degree C., 80% RH): 2.44%
- Mass change by DVS, 1st Sorption (%) ([1]; DVS at 40 degree C., 90% RH): 2.49%
- Mass change by DVS, 2nd Desorption (%) ([1]; DVS at 40 degree C., 90% RH): 2.49%
- Mass change by DVS, 1st Sorption (%) ([1]; DVS at 40 degree C., 95% RH): 2.52%
- Mass change by DVS, 2nd Desorption (%) ([1]; DVS at 40 degree C., 95% RH): 2.52%
- water content by Karl Fischer titration [2]: 2.3 % w/w
- XRPD of residual solid after solubility test ([3]; FaSSGF, pH 1.6): No change
- pH of solubility sample (pH) ([3]; FaSSGF, pH 1.6): 1.77
- pH of solubility sample (pH) ([3]; PBS-V1 + 3 mM NaTC, pH 6.5): 6.42
- XRPD of residual solid after solubility test ([3]; PBS-V1 + 0.3 FeSSIF-V2, pH 6.5): Form A
- pH of solubility sample (pH) ([3]; PBS-V1 + 0.3 FeSSIF-V2, pH 6.5): 6.12
- XRPD of residual solid after solubility test ([3]; PBS-V1 + 2.0 FeSSIF-V2, pH 6.5): Form A
- pH of solubility sample (pH) ([3]; PBS-V1 + 2.0 FeSSIF-V2, pH 6.5): 6.19
- pH of solubility sample (pH) ([3]; PBS-V1 + FaSSIF-V2, pH 6.5): 6.35
- XRPD of residual solid after solubility test ([3]; PBS-V1 + FeSSIF-V2, pH 6.5): Form A
- pH of solubility sample (pH) ([3]; PBS-V1 + FeSSIF-V2, pH 6.5): 6.40
- solubility at 24 h ([3]; fassgf or other biorelevant, FaSSGF, pH 1.6): 0.49 mg/mL
- solubility at 24 h ([3]; fassgf or other biorelevant, PBS-V1 + 3 mM NaTC, pH 6.5): > 2 mg/mL
- solubility at 24 h ([3]; fassgf or other biorelevant, PBS-V1 + 0.3 FeSSIF-V2, pH 6.5): 0.1 mg/mL
- solubility at 24 h ([3]; fassgf or other biorelevant, PBS-V1 + 2.0 FeSSIF-V2, pH 6.5): 0.31 mg/mL
- solubility at 24 h ([3]; PBS-V1 + FaSSIF-V2, pH 6.5): > 2 mg/mL
- solubility at 24 h ([3]; PBS-V1 + FeSSIF-V2, pH 6.5): 0.2 mg/mL
- solubility at 24 h ([3]; water): 0.39 mg/mL
- solubility at 24 h compared with Form A ([3]; water and biorelevant buffers at 25° C., all media): significantly increased solubility
- pH of solubility sample (pH) ([3]; water): 3.89
- stability in HPMC and HGC capsules ([4]; 50° C. with 11% and 75% RH for 2 weeks): chemically and physically stable
- degradation under light stress ([4]; 1200 kLux light stress): about 0.2%
- discoloration under light stress ([4]; 1200 kLux light stress): slight discoloration
- form change by XRPD after humidity exposure ([4]; exposed to 80% or 92% RH for 24 hrs): no change
- chemical stability in bulk state ([4]; stored at 50° C. with 11% RH or 75% RH for 1 week): chemically stable
- degradation in bulk state ([4]; stored at 80° C. with 75% RH): about 0.1%
- discoloration in bulk state ([4]; stored at 80° C. with 75% RH): slight discoloration
- chemical stability in bulk state ([4]; stored at 80° C./11% RH for 1 week): chemically stable
- polymorphic form in the stress conditions ([4]; temperature/humidity and light stress conditions): no change
